Assay results reported in PubChem BioAssay (NCI).
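Test compounds were applied to cells in 96-well plates for 48 hours at 5 doses. GI50 marks 50% less growth. Definition used: TGI = concentration required for complete inhibition of growth.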

What was measured:
Experiment in all cases: DTP human tumour cell line panel, 48 h
[1] = system: NCI/ADR-RES ovarian
[2] = system: MOLT-4 leukemia
[3] = system: TK-10 renal
[4] = system: SF-539 CNS
[5] = system: PC-3 prostate
[6] = system: OVCAR-3 ovarian
[7] = system: UO-31 renal
[8] = system: SK-MEL-5 melanoma
[9] = system: MDA-MB-435
[10] = system: HCC-2998 colon
[11] = system: HL-60(TB) leukemia
[12] = system: M14 melanoma
[13] = system: HOP-92 NSCLC
[14] = system: DU-145 prostate
[15] = system: BT-549 breast
[16] = system: HS 578T breast
[17] = system: MCF7 breast
[18] = system: ACHN renal
[19] = system: UACC-62 melanoma
[20] = system: NCI-H522 lung
[21] = system: CCRF-CEM leukemia
[22] = system: EKVX NSCLC
[23] = system: NCI-H226 lung
[24] = system: UACC-257 melanoma
[25] = system: SK-MEL-28 melanoma
[26] = system: MDA-MB-231 breast
[27] = system: SK-OV-3 ovarian
[28] = system: RPMI-8226 leukemia
[29] = system: SN12C renal
[30] = system: OVCAR-5 ovarian
[31] = system: SNB-75 CNS
[32] = system: CAKI-1 renal
[33] = system: SF-295 CNS
[34] = system: COLO 205 colon
[35] = system: 786-0 renal
[36] = system: SW-620 colon
[37] = system: KM12 colon
[38] = system: NCI-H23 lung
[39] = system: HT29 colon
[40] = system: HCT-15 colon
[41] = system: A498 renal

Work on `COc1cc(/C=C2\CN(S(=O)(=O)c3ccc(C)cc3)C/C(=C\c3cc(CN4CCCCC4)c(O)c(OC)c3)C2=O)cc(CN2CCCCC2)c1O` yielded a GI50 [1] of 1220 nM, a TGI [1] of 3770 nM and a GI50 [2] of 918 nM. It also gave a TGI [2] of 5040 nM, a GI50 [3] of 1980 nM and a TGI [3] of 3630 nM. It also gave a GI50 [4] of 1740 nM, a TGI [4] of 3310 nM and a GI50 [5] of 1870 nM. The TGI [5] was 4750 nM, the GI50 [6] was 1850 nM and the TGI [6] was 3590 nM. The GI50 [7] was 1600 nM, the TGI [7] was 3030 nM and the GI50 [8] was 1810 nM. It also gave a TGI [8] of 3470 nM, a GI50 [9] of 360 nM and a TGI [9] of 1390 nM. For the same compound, the GI50 [10] was 1780 nM, the TGI [10] was 3370 nM and the GI50 [11] was 1880 nM. It also gave a TGI [11] of 4340 nM, a GI50 [12] of 1610 nM and a TGI [12] of 3270 nM. For the same compound, the GI50 [13] was 1550 nM, the TGI [13] was 3190 nM and the GI50 [14] was 1850 nM. The TGI [14] was 3530 nM, the GI50 [15] was 1380 nM and the TGI [15] was 2770 nM. For the same compound, the GI50 [16] was 1920 nM, the TGI [16] was 4500 nM and the GI50 [17] was 375 nM. It also gave a TGI [17] of 2390 nM, a GI50 [18] of 1440 nM and a TGI [18] of 2740 nM. For the same compound, the GI50 [19] was 1630 nM, the TGI [19] was 3320 nM and the GI50 [20] was 306 nM. It also gave a TGI [20] of 1320 nM, a GI50 [21] of 307 nM and a TGI [21] of 1130 nM. For the same compound, the GI50 [22] was 1980 nM, the TGI [22] was 4580 nM and the GI50 [23] was 1760 nM. For the same compound, the TGI [23] was 4290 nM, the GI50 [24] was 1450 nM and the TGI [24] was 3020 nM. For the same compound, the GI50 [25] was 1610 nM, the TGI [25] was 3130 nM and the GI50 [26] was 1140 nM. For the same compound, the TGI [26] was 2770 nM, the GI50 [27] was 1910 nM and the TGI [27] was 3600 nM. For the same compound, the GI50 [28] was 2030 nM, the TGI [28] was 5450 nM and the GI50 [29] was 1770 nM. It also gave a TGI [29] of 3420 nM, a GI50 [30] of 1880 nM and a TGI [30] of 3400 nM. It also gave a GI50 [31] of 1640 nM, a TGI [31] of 3410 nM and a GI50 [32] of 1730 nM. The TGI [32] was 3270 nM, the GI50 [33] was 2260 nM and the TGI [33] was 5150 nM. The GI50 [34] was 1680 nM and the TGI [34] was 3580 nM.
With `CCN(CC)Cc1cc(Nc2ccnc3cc(Cl)ccc23)cc(-c2ccc(Cl)cc2)c1O` the GI50 [2] was 485 nM, the TGI [2] was greater than 100000 nM and the GI50 [35] was 1840 nM. For the same compound, the TGI [35] was greater than 100000 nM, the GI50 [5] was 771 nM and the TGI [5] was greater than 100000 nM. The GI50 [36] was 628 nM, the TGI [36] was greater than 100000 nM and the GI50 [37] was 3080 nM. It also gave a TGI [37] greater than 100000 nM, a GI50 [9] of 989 nM and a TGI [9] greater than 100000 nM. The GI50 [13] was 434 nM, the TGI [13] was 3200 nM and the GI50 [38] was 704 nM. The TGI [38] was greater than 100000 nM, the GI50 [39] was 1880 nM and the TGI [39] was greater than 100000 nM. For the same compound, the GI50 [21] was 999 nM, the TGI [21] was greater than 100000 nM and the GI50 [22] was 879 nM. For the same compound, the TGI [22] was greater than 100000 nM, the GI50 [24] was 1290 nM and the TGI [24] was 4850 nM. For the same compound, the GI50 [27] was 3890 nM, the TGI [27] was greater than 100000 nM and the GI50 [40] was 577 nM. The TGI [40] was greater than 100000 nM, the GI50 [32] was 907 nM and the TGI [32] was greater than 100000 nM. The GI50 [33] was 1390 nM, the TGI [33] was greater than 100000 nM and the GI50 [34] was 3050 nM. It also gave a TGI [34] greater than 100000 nM.
`COc1ccc2[nH]cc(/C=C3/C(=O)Nc4ccc(Cl)cc43)c2c1` showed a GI50 [2] greater than 100000 nM, a TGI [2] greater than 100000 nM and a GI50 [37] of 352 nM. The TGI [37] was greater than 100000 nM, the GI50 [11] was greater than 100000 nM and the TGI [11] was greater than 100000 nM. It also gave a GI50 [41] greater than 100000 nM, a TGI [41] greater than 100000 nM and a GI50 [21] of 5970 nM. The TGI [21] was greater than 100000 nM, the GI50 [30] was greater than 100000 nM and the TGI [30] was greater than 100000 nM.
